The source of these data is publication PMC2375285, “Inhibition of all-TRANS-retinoic acid metabolism by R116010 induces antitumour activity” (British Journal of Cancer, 2002).

Where only a bound is given, the exact number is not on record here.

Data set [1] addresses T1, 17,20-lyase (CYP17) (Rattus norvegicus, UniProt P11715).
T1 construct: 17,20-lyase (CYP17) in rat testicular S10 fractions; from tissue; host or cells: rat testis, S10 fraction
T1 sequence (P11715 1-507): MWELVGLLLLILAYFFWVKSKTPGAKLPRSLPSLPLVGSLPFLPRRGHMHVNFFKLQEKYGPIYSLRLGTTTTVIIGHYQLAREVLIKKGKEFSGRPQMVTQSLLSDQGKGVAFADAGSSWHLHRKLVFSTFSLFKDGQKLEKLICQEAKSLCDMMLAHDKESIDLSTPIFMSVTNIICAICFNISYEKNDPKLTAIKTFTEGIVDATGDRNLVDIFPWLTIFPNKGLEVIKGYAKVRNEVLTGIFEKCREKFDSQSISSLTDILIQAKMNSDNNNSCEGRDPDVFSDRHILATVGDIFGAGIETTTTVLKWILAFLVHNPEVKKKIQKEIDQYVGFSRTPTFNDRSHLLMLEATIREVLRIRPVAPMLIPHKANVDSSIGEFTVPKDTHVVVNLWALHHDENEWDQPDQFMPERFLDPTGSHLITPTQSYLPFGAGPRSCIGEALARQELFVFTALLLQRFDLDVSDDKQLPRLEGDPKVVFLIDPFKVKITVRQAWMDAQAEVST
In words: 17,20-lyase in rat testicular S10 fraction. In kind it is biochemical.
Method: Metabolism of RA by CYP26A1 was measured in microsomes of T47D human breast cancer cells that were pretreated for 16 h with 1 μM RA to induce RA metabolism. Microsomes were prepared exactly as described by [Han and Choi (1996)], and RA metabolism was measured as described by [Van Wauwe et al (1994)]. The conversion of androstenedione to estrone by aromatase (CYP19) in human placental microsomes, the conversion of 17-hydroxy-20-dihydroprogesterone to testosterone by 17,20-lyase (CYP17) in rat testicular S10 fractions, and the 2α-, 7α-, 6β-, and 16β-hydroxylation of testosterone (CYP2C11, CYP2A1, CYP3A, CYP2B1/2) in rat liver microsomes were carried out as described ([Vanden Bossche et al, 1990]).

The test system of data set [2] is TA3-Ha mammary tumours. The experiment in a line: TA3-Ha mammary carcinoma model.
Method: Cells (1.5×10^6) were injected intraperitoneally in syngeneic A/J mice. […] Each group consisted of 10 animals for experiments with R116010 and of six animals for experiments with RA. All treatments were performed by oral gavage. […] The control groups were given the vehicle 20% 4-OH-β-cyclodextrine in sterile saline. Mice were daily examined for adverse drug effects. At the end of the experiments, subcutaneous tumours were excised 24 h after the last treatment and weighed to validate the antitumoural effects of the treatment.
Data are represented as box plots showing median group value, 25/75th percentile, 10/90th percentile and outliers. Groups were statistically compared to the vehicle-treated groups using the Mann–Whitney U-test. Significance was defined at the level of P<0.05.
Data set [3] deals with T2, aromatase (CYP19) (Homo sapiens, UniProt P11511).
T2 construct: aromatase (CYP19) in human placental microsomes; from tissue; host or cells: human placenta, microsomes
T2 sequence (P11511 1-503): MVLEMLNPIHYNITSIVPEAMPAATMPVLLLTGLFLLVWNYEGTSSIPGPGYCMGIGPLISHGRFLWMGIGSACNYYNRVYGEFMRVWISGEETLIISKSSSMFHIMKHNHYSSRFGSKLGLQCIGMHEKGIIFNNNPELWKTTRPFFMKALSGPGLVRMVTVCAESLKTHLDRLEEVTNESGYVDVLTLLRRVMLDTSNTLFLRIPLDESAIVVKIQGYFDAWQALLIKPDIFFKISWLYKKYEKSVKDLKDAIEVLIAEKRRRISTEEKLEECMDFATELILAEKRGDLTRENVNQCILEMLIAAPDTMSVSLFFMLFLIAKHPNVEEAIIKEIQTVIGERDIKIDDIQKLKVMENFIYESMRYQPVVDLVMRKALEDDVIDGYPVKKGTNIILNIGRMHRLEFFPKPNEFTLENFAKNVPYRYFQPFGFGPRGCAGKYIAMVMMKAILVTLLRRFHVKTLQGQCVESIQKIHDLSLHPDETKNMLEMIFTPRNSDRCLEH
The experiment in a line: Aromatase, conversion of androstenedione to estrone in human placental microsomes. In kind it is biochemical.
Method: (§1) The conversion of androstenedione to estrone by aromatase (CYP19) in human placental microsomes, the conversion of 17-hydroxy-20-dihydroprogesterone to testosterone by 17,20-lyase (CYP17) in rat testicular S10 fractions, and the 2α-, 7α-, 6β-, and 16β-hydroxylation of testosterone (CYP2C11, CYP2A1, CYP3A, CYP2B1/2) in rat liver microsomes were carried out as described ([Vanden Bossche et al, 1990]).

In data set [4] the test system is T47D cells. The experiment in a line: T47D cell proliferation (MTT assay, 7 days). In kind it is cell-based, human. As to conditions: for enhancement of the antiproliferative activity of RA: T47D cells. On the procedure:
T47D cells were seeded in Falcon® 96-well cell culture plates (Life Technologies, Merelbeke, Belgium) at 2500 cells per well in a total volume of 150 μl. Cells were allowed to adhere to plastic for 24 h. Drugs and/or medium were added to a final volume of 200 μl (day 0). Cells were grown under these conditions for 7 days, with renewal of medium and drugs on days 2 and 5. On day 7, medium was renewed and 25 μl MTT-solution was added, and cells were further incubated for 2 h in a cell incubator. The medium was aspirated and 25 μl Sorensen glycine buffer (0.1 M glycine, 0.1 M NaCl; pH 10.5) was added together with 100 μl DMSO to solubilize the blue MTT-formazan product. […] Data are presented as mean±s.d. of three or four independent experiments. Within an experiment, the result of each experimental condition is the mean of six replicate wells. The IC50-values were calculated by non-linear regression analysis using SigmaPlot 4.01 software.
On the technique in general: Tetrazolium assays rely on reduction of a dye to a coloured formazan, in cell work by metabolically active cells.

Data set [5] deals with androgen-independent rat prostatic Dunning R3327/PIF-1 carcinoma cells. Also on record: method as in Van Ginckel et al, 1999. As to conditions: in vivo; ref Van Ginckel et al, 1999; cited from earlier work.
The target in data set [6] is T3, CYP2C11 (Rattus norvegicus, UniProt P08683).
T3 construct: hydroxylation of testosterone (CYP2C11, CYP2A1, CYP3A, CYP2B1/2) in rat liver microsomes; from tissue; host or cells: rat liver, microsomes
T3 sequence (P08683 1-500): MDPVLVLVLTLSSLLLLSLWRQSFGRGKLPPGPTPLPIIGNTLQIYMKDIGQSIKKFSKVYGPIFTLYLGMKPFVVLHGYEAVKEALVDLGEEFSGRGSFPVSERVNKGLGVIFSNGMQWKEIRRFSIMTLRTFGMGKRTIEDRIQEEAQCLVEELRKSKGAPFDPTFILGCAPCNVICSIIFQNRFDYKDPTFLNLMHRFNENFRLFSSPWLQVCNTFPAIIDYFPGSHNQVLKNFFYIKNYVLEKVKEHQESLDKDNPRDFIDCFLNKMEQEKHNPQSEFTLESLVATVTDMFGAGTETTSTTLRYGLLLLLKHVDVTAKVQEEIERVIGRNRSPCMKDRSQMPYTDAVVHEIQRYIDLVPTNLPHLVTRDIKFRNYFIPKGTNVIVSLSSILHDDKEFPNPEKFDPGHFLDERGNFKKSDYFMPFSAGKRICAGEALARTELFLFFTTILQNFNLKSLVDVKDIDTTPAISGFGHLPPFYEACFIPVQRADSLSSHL
In words: Testosterone 2α-hydroxylase in rat liver microsomes. In kind it is biochemical.
Method: as §1

What is called IC50 is the concentration that gives 50% inhibition. A higher IC50 goes with weaker potency. The term inhibition denotes the change of the read-out against control, counted positive when it falls. Consider `C[C@@H]([C@H](c1ccc(Nc2nc3ccccc3s2)cc1)n1ccnc1)N(C)C` [R116010, [S-(R*,R*)]-N-[4-[2-(dimethylamino)-1-(1H-imidazole-1-yl)propyl]-phenyl]-2-benzothiazolamine], for which the results for the IC50 in data set [1], in data set [3] (Human placental microsomes) and in data set [6] (Rat liver microsomes) were 0.25 µM, greater than 10 µM and greater than 10 µM, respectively. Also, the body weight decrease in data set [2] (R116010 5 mg kg^−1, mice) was roughly 15%. In data set [2] (at toxic dose: RA 5, R116010 5, liarozole fumarate 20 mg kg^−1), the toxicity findings result is “hair loss and bone fractures”. This compound registered a therapeutic window in data set [2] (maximum tolerated dose versus lowest active dose, TA3-Ha model) of 30 fold. Moreover, the “dose at which toxicity was observed” value in data set [2] (mice, oral, twice daily, toxicity related to hypervitaminosis A) amounted to 5 mg/kg. Besides, the “fold more potent than liarozole-fumarate in TA3-Ha model” value in data set [2] (oral, twice daily) is “approximately 60 fold”. Besides, the “lowest active dose inhibiting TA3-Ha tumour growth” value in data set [2] (oral, twice daily, day 1 until day 21, tumour weight) was 0.16 mg/kg. Besides, the inhibition at 10 μM in data set [3] (10 μM R116010, human placental microsomes, read-out: percentage of inhibition, Aromatase (CYP19)) worked out at 12%; in data set [6] (probe testosterone (2α-hydroxylation), 10 μM R116010, rat liver microsomes, read-out: percentage of inhibition, Testosterone 2α-hydroxylase (CYP2C11)) it was 28%. Also, the figures for the “enhancement of the antiproliferative activity of RA” value in data set [4] (0.01 μM R116010), in data set [4] (0.1 μM R116010) and in data set [4] (1 μM R116010) were 1.25 fold, 2.6 fold and “three-fold”, respectively. Also, the “effect on T47D cell proliferation by itself” value in data set [4] (compound alone, 7 days, MTT) is listed as “no effect”. Moreover, in data set [5], the “growth of orthotopically implanted Dunning R3327/PIF-1 carcinoma cells” value is reported as “inhibit the growth”.
